Source: patent US9458120B2, “Phenoxypropanol derivative and pharmaceutical composition including the same” (KOREA INSTITUTE OF SCIENCE AND TECHNOLOGY, priority 2011, dated 2016)

Columns and labels:
[1] = biological target: α1G T-type calcium channel (Homo sapiens, UniProt O43497); experiment: Assay for T-type calcium channel inhibition activity (FDSS6000 calcium imaging, KCl activation); assay type: cell-based; details: 75 s pre-treatment then KCl 75 mM, HEK293 cells expressing α1G T-type calcium channel and Kir2.1
Sequence of α1G T-type calcium channel (O43497 whole entry): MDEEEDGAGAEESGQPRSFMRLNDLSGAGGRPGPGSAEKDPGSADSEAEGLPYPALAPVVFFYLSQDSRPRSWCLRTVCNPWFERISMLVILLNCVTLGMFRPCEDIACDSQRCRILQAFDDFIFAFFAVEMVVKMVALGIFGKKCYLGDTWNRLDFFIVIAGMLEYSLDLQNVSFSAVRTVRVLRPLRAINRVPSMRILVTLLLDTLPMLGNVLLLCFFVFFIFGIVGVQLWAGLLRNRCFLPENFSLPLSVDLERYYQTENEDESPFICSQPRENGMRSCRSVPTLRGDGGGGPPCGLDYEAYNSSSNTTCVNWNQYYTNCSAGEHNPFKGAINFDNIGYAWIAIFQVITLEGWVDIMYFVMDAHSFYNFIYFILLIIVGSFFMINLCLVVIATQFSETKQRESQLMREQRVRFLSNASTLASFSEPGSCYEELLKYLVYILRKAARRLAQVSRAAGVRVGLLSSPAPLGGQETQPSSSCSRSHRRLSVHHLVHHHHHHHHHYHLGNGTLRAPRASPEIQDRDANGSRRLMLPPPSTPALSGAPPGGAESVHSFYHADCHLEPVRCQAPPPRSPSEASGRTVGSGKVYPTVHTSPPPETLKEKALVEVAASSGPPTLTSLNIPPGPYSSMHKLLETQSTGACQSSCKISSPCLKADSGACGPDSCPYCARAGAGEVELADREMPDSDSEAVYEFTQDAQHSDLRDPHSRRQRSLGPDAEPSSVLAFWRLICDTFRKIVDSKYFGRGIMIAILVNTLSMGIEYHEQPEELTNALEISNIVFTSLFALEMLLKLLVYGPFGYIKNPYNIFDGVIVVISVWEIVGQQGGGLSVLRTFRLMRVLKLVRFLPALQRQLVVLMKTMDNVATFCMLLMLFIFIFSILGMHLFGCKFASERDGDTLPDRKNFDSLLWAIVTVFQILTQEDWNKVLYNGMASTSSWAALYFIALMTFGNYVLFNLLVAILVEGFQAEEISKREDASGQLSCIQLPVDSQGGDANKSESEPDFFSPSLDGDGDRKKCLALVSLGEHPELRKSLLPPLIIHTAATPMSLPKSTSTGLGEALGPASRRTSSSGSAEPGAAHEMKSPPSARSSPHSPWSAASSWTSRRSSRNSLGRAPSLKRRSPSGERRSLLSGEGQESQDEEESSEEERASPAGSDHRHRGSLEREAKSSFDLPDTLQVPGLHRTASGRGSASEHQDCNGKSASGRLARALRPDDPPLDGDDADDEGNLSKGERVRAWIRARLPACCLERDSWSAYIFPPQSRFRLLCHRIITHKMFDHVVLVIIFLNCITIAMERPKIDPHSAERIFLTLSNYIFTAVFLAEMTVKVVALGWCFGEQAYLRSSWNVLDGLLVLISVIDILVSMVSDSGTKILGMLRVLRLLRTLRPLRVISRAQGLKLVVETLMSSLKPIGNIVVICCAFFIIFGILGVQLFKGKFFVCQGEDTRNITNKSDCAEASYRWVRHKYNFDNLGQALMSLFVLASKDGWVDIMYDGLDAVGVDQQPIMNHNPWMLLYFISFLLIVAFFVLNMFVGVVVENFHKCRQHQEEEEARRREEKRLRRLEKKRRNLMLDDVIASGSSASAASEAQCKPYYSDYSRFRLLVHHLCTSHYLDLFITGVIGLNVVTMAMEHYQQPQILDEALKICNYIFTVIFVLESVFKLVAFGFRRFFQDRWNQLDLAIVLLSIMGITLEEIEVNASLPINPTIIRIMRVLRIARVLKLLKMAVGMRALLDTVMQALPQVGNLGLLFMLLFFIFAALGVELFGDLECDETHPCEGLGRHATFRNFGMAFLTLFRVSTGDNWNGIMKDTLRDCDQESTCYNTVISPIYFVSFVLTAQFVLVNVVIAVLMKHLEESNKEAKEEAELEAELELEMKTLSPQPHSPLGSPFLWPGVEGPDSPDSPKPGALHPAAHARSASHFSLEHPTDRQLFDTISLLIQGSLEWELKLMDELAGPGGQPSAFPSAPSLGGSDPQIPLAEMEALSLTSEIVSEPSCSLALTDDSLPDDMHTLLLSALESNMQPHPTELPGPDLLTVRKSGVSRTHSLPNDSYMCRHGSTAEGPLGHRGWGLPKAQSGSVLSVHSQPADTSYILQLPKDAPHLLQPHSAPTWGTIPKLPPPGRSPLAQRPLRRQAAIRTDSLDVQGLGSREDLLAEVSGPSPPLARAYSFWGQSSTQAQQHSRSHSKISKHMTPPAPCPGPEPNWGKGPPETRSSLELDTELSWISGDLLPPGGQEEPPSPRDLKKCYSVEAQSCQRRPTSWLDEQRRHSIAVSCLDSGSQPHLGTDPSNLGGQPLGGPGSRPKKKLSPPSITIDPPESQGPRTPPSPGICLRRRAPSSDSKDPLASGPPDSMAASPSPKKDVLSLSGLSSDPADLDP
Protocol: At 12-24 hours before the assay for T-type calcium channel activity, cells of HEK293 cell line (α1G cell line: KCTC 10519BP, GenBank, Korea Research Institute of Bioscience and Biotechnology) which stably express α1G T-type calcium channel and Kir2.1, were sub-cultured in a poly-L-lysine (0.05 mg/ml) treated 96-well plate with the density of 4×10^4 per a well using a 96-well cell dispenser (Titertek). On the day of assay, the 96-well plate to which the cells were attached were washed three times with a HEPES buffer solution (unit mM: 150 NaCl, 5 KCl, 1 MgCl2, 2 CaCl2, 10 HEPES, 10 glucose, pH 7.4) using a 96-well plate automatic washing device (Bio Tek), and then reacted with a HEPES buffer solution containing 5 μM fluo-3/AM and 0.001% (w/v) Pluronic F-127 at room temperature for 1 hour, to label with fluorescent dye, and then further washed twice with the HEPES buffer solution. Thereafter, at 10 minutes before the measurement using a FDSS6000 device, a washing with a HEPES buffer solution containing 10 mM CaCl2 was conducted once more, and the final volume was adjusted to 81 μl. Besides the above 96-well plate containing the cells, additional two 96-well drug plates were provided, in which the 96-well plates contained KCl (final concentration: 75 mM) for activating T-type calcium channel and a blocker drug, respectively.
Since most of cell-based HTS (High throughput screening) devices are equipped with a liquid application system for drug injection, but have no liquid sucking system, the blocker drug to be tested and KCl were respectively provided at the five-times higher concentration in 10 mM CaCl2 HEPES buffer solution at the amount of 27 μl, diluted five-times at the final cell plate volume of 135 μl, and then used in this test. In this Experimental Example, therefore, FDSS6000 (Hamamatsu Photonics) was used as an alternative to HTS device.
Specific FDSS6000 measurement conditions are as follows: After recording the reference value of 20 seconds, the change of intracellular calcium concentration which induced by pre-treatment of the drug (the prepared […]) for 75 seconds followed by administration of KCl was measured, in which the percentage (%) inhibition effect of the test drug was determined, through estimating the area of ratio value of 340/380 in the control without treatment of the test drug as 100%. As a reference drug, 10 μM of mibefradil was always used.
For accurate calcium-imagination, the light sources of 4 xenon lamps in FDSS6000 were radiated to make the cells exposed selectively to the excitation wavelength (340 nm and 380 nm) by computer-controlled filter wheel. Data was obtained at interval of each 1.23 second. The emitter fluorescence light inflow through a 515 nm long-pass filter was obtained as an average 340/380 ratio value for each well in the 96-wells by a cooled CCD camera and digital fluorescence analyzer in the device. All image data and analysis were obtained by using a FDSS6000-exclusive program provided by Hamamatsu Photonics, as described above.

[2] = biological target: T1, TREK-1 channel (Rattus norvegicus, UniProt Q920B6); experiment: Assay for TREK channel inhibition activity (whole cell patch clamp recording, COS7 cell transfected with GFP-rTREK-1); assay type: cell-based; details: COS7 cells, GFP-rTREK-1, whole-cell patch clamp; for inhibition at 101 µM: COS-7, Table 3 (value ± spread), 101 μM [sic], read-out: block % at 101 μM; for inhibition at 10 µM: COS-7, Table 2, read-out: block % at 10 μM
T1 construct: expressed in transfected cells; host or cells: COS7 (Korean Cell Line Bank), transient transfection with Effectene
T1 sequence (Q920B6 1-426): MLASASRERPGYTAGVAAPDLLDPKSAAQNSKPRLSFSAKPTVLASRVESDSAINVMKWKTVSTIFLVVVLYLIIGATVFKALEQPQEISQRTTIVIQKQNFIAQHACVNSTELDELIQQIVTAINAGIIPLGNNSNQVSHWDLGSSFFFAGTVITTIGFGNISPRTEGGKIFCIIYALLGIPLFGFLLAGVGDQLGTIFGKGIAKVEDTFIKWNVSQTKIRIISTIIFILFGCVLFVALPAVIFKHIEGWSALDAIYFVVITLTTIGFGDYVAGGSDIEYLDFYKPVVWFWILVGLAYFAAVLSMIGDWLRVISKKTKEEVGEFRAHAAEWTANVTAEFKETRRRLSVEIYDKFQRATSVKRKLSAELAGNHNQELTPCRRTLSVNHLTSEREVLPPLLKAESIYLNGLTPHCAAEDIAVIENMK
Protocol: The inhibition activity of the compound of the present invention against TREK-1 channel was measured by measuring the physiological activity by whole cell patch clamp recording.
COS7 cell (obtained from Korean Cell Line Bank (KCLB)) was transfected with GFP-rTREK-1 gene (accession number: AY727922) using an Effectene transfection reagent (Qiagen), and cultured for 24 hours in an incubator at 37° C. As a culture medium, Dulbecco's modified Eagle's medium (DMEM, GIBCO products from Invitrogen) containing 10% by weight of fetal bovine serum (FBS) and 1% by weight of penicillin/streptomycin (5000 unit/ml) was used. The cells thus prepared were adhered on a cover glass, which was placed on a chamber, and then a recording solution (150 mM NaCl, 10 mM HEPES, 10 mM KCl, 2 mM CaCl2, 5.5 mM D-Glucose, all reagents were purchased from Sigma) was applied. A glass microelectrode was filled with an intracellular solution prepared with the composition of 150 mM KCl, 5 mM EGTA, 10 mM HEPES, 0.5 mM CaCl2, 1 mM MgCl2, 4 mM Mg-ATP, and 0.3 mM Na-GTP (all reagents were purchased from Sigma), followed by whole-cell patch clamp recording. The voltage was fixed at −70 mV using a Digidata 1322A data acquisition system (Molecular Devices) and an Axopatch 200A amplifier (Axon Instruments), and the current generated by applying a voltage ramp from −100 mV to +100 mV for 1 second was measured using a Clampex9.2 program. A difference between the current values measured at +100 mV and −100 mV was defined as a current in the above experiment. The currents before and after blocker treatment were measured so as to determine the inhibition activity.
Block %=100−(current after blocker treatment/current before blocker treatment)*100

Row | inhibition [1] | inhibition at 101 µM [2] | inhibition at 10 µM [2] | block % at 100 μM ([2]; Table 2) | block % at 100 μM ([2]; Table 3 (value ± spread)) | SMILES
1 | 39.9% | 26.5 ± 3.97% |  |  |  | OC(COc1ccc(F)cc1)CN1CCN(Cc2nccn2Cc2ccccc2)CC1 (stereo in doubt) [KKRE10154, (R)-1-(4-((1-benzyl-1H-imidazol-2-yl)methyl)piperazin-1-yl)-3-(4-fluorophenoxy)propan-2-ol]
2 | 46.9% | 52.1 ± 7.24% | 52.1% |  |  | O[C@@H](COc1ccc(C(F)(F)F)cc1)CN1CCN(Cc2nccn2Cc2ccccc2)CC1 [KKRE10153, (R)-1-(4-((1-benzyl-1H-imidazol-2-yl)methyl)piperazin-1-yl)-3-(4-(trifluoromethyl)phenoxy)propan-2-ol]
3 | 33.7% | 24 ± 10.6% |  |  |  | O[C@@H](COc1ccc(F)cc1)CN1CCN(Cc2nccn2Cc2ccccc2)CC1 [KKRE10155, (R)-1-(4-((1-benzyl-1H-imidazol-2-yl)methyl)piperazin-1-yl)-3-(4-fluorophenoxy)propan-2-ol]
4 | 5.31% | 16.4 ± 5.65% |  |  |  | O[C@@H](COc1ccc(F)cc1)CN1CCC(N2CCOCC2)CC1 [KKRE10156, (R)-1-(4-fluorophenoxy)-3-(4-morpholinopiperidin-1-yl)propan-2-ol]
5 | 9.33% | 29.6 ± 3.71% |  |  |  | O[C@H](COc1ccc(F)cc1)CN1CCC(N2CCOCC2)CC1 [KKRE10157, (S)-1-(4-fluorophenoxy)-3-(4-morpholinopiperidin-1-yl)propan-2-ol]
6 | 6.65% | 16.8 ± 2.73% |  |  |  | O[C@@H](COc1ccc(F)cc1)CN1CCC(N2CCCCC2)CC1 [KKRE10158, (R)-1-(1,4′-bipiperidin-1′-yl)-3-(4-fluorophenoxy)propan-2-ol]
7 | 6.37% | 13.4 ± 5.78% |  |  |  | O[C@H](COc1ccc(F)cc1)CN1CCC(N2CCCCC2)CC1 [KKRE10159, (S)-1-(1,4′-bipiperidin-1′-yl)-3-(4-fluorophenoxy)propan-2-ol]
8 | 0.31% | 4.13 ± 4.43% |  |  |  | O[C@@H](COc1ccc(F)cc1)CN1CCC(N2CCCC2)CC1 [KKRE10160, (R)-1-(4-fluorophenoxy)-3-(4-(pyrrolidin-1-yl)piperidin-1-yl)propan-2-ol]
9 | -0.06% | 8.28 ± 3.49% |  |  |  | O[C@H](COc1ccc(F)cc1)CN1CCC(N2CCCC2)CC1 [KKRE10161, (S)-1-(4-fluorophenoxy)-3-(4-(pyrrolidin-1-yl)piperidin-1-yl)propan-2-ol]
10 | 53.6% | 63.2 ± 7.6% | 63.2% |  |  | O=C(CN1CCN(C[C@H](O)COc2ccc(C(F)(F)F)cc2)CC1)NCc1ccc(C(F)(F)F)cc1 [KKRE10173, (S)-2-(4-(2-hydroxy-3-(4-(trifluoromethyl)phenoxy)propyl)piperazin-1-yl)-N-(4-(trifluoromethyl)benzyl)acetamide]
11 | 48.8% | 37.6 ± 5.55% | 37.6% | 88.17% | 88.17 ± 4.60% | Cc1ccc(CNC(=O)CN2CCN(C[C@H](O)COc3ccc(C(F)(F)F)cc3)CC2)cc1 [KKRE10174, (S)-2-(4-(2-hydroxy-3-(4-(trifluoromethyl)phenoxy)propyl)piperazin-1-yl)-N-(4-methylbenzyl)acetamide]
12 | 43.1% | 18.1 ± 6.92% | 18.1% | 74.61% | 74.61 ± 2.15% | O=C(CN1CCN(C[C@H](O)COc2ccc(C(F)(F)F)cc2)CC1)NC1CCCCC1 [KKRE10175, (S)-N-cyclohexyl-2-(4-(2-hydroxy-3-(4-(trifluoromethyl)phenoxy)propyl)piperazin-1-yl)acetamide]
13 | 43.9% | 33.5 ± 5.67% |  |  |  | O=C(CN1CCN(C[C@@H](O)COc2ccc(C(F)(F)F)cc2)CC1)NC1CCCCC1 [KKRE10176, (R)-N-cyclohexyl-2-(4-(2-hydroxy-3-(4-(trifluoromethyl)phenoxy)propyl)piperazin-1-yl)acetamide]
14 | 42% |  |  |  |  | O=C(CN1CCN(CC(O)COc2ccc(C(F)(F)F)cc2)CC1)NC1CCCCC1 (stereo not drawn) [KKRE10177, N-cyclohexyl-2-(4-(2-hydroxy-3-(4-(trifluoromethyl)phenoxy)propyl)piperazin-1-yl)acetamide]
15 | 37.6% | 66 ± 4.05% |  |  |  | O[C@@H](COc1ccc(F)cc1)CN1CCC(F)(F)CC1 [KKRE10178, (R)-1-(4,4-difluoropiperidin-1-yl)-3-(4-fluorophenoxy)propan-2-ol]
16 | 17.3% | 23.3 ± 10% |  |  |  | O[C@H](COc1ccc(F)cc1)CN1CCC(F)(F)CC1 [KKRE10180, (S)-1-(4,4-difluoropiperidin-1-yl)-3-(4-fluorophenoxy)propan-2-ol]
17 | 8.45% |  |  |  |  | O[C@H](COc1ccc(C(F)(F)F)cc1)CN1CCC(N2CCCC2)CC1 [KKRE10189, (S)-1-(4-(pyrrolidin-1-yl)piperidin-1-yl)-3-(4-(trifluoromethyl)phenoxy)propan-2-ol]
18 | 35% |  |  |  |  | O[C@H](COc1ccc(C(F)(F)F)cc1)CN1CCC(F)(F)CC1 [KKRE10190, (S)-1-(4,4-difluoropiperidin-1-yl)-3-(4-(trifluoromethyl)phenoxy)propan-2-ol]
19 | 74.3% |  |  |  |  | O=C(CN1CCN(C[C@@H](O)COc2ccc(C(F)(F)F)cc2)CC1)NCc1cc(C2CC2)n(-c2ccccc2)n1 [KKRE10212, (R)-N-((5-cyclopropyl-1-phenyl-1H-pyrazol-3-yl)methyl)-2-(4-(2-hydroxy-3-(4-(trifluoromethyl)phenoxy)propyl)piperazin-1-yl)acetamide]

Row | SMILES | inhibition [1] | inhibition at 101 µM [2] | inhibition at 10 µM [2] | block % at 100 μM ([2]; Table 2) | block % at 100 μM ([2]; Table 3 (value ± spread))
20 | O[C@@H](COc1ccc(F)cc1)CN1CCC(O)(c2ccccc2)CC1 [KKRE10179] | 16% | 19.9 ± 4.25% |  |  | 
21 | O[C@H](COc1ccc(C(F)(F)F)cc1)CN1CCC(O)(c2ccccc2)CC1 [KKRE10191, (S)-1-(2-hydroxy-3-(4-(trifluoromethyl)phenoxy)propyl)-4-phenylpiperidin-4-ol] | 16.8% |  |  |  | 
